Columns and labels:
tubulin = assay: HTS-Tubulin Polymerization Assay Kit, tubulin polymerization in vitro; assay type: biochemical; settings: 1 μM solution, 10 μL + 100 μL 4 mg/ml tubulin, 37° C., 405 nm; compared with the PBS buffer (FIG. 6)
Procedure: According to the instruction of kit, pre-warm the 96-well plate to 37° C. for 30 min prior to starting the assay. At the same time, the spectrophotometer (SpectraMax, Molecular Devices, USA) was set as follow: wavelength, 405 nm; temperature, 37° C.; Kinetic, 31 cycles of 1 reading per minute. Make cold G-PEM buffer (990 μL General Tubulin Buffer+10 μL GTP Stock) and keep it on ice. […] Immediately place the plate into the spectrophotometer and start recording using the kinetic setup described above. […] Nocodazole, the tubulin polymerization inhibitor, was set as a negative control. The metabolite Cys-3AA-MDC was prepared by reaction of 3AA-MDC with cysteine under the base DIEA in CH2Cl2. LC-MS (M+H^+) calc.: 964.5. found: 964.2. Rt: 12.97 min. The metabolite Lys-MCC-MDC was prepared by reaction of SMCC-MDC with lysine under the base DIEA in DMF. LC-MS (M+H^+) calc.: 1103.7. found: 1103.2. Rt: 13.00 and 13.18 min.

[1] = test system: multiple cancer cell lines; settings: cited from earlier work
[2] = test system: human acute lymphoblastic leukemia line C.E.M.; settings: cited from earlier work
[3] = test system: Lewis lung carcinoma and B-16 melanocarcinoma solid murine tumor models; settings: mouse, in vivo; cited from earlier work

## COc1cc2cc(c1Cl)N(C)C(=O)C[C@H](OC(=O)[C@H](C)N(C)C(=O)CCSC1CC(=O)N(CC3CCC(C(=O)NCCCC[C@H](N)C(=O)O)CC3)C1=O)[C@]1(C)O[C@H]1[C@H](C)[C@@H]1C[C@@](O)(NC(=O)O1)[C@H](OC)/C=C/C=C(\C)C2 (stereo partly drawn) [Lys-mcc-MDC]
tubulin
  inhibition of tubulin polymerization: more significantly inhibited the tubulin polymerization

## COc1cc2cc(c1Cl)N(C)C(=O)C[C@H](OC(=O)C(C)C)[C@]1(C)O[C@@H]1[C@H](C)[C@@H]1C[C@@](O)(NC(=O)O1)[C@H](OC)/C=C/C=C(\C)C2 [Ansamitocin P3]
[1]
  efficacy against cancer cell lines: effective against multiple cancer cell lines

## CN[C@@H](C)C(=O)OC1CC(=O)N(C)c2cc(cc(OC)c2Cl)C/C(C)=C/C=C/C(OC)C2(O)CC(OC(=O)N2)C(C)C2OC12C (stereo partly drawn) [Cys-3AA-MDC]
tubulin
  inhibition of tubulin polymerization: more significantly inhibited the tubulin polymerization

## COc1cc2cc(c1Cl)N(C)C(=O)C[C@H](OC(=O)[C@H](C)N(C)C(=O)CCCCCN1C(=O)C=CC1=O)[C@]1(C)OC1[C@H](C)[C@@H]1C[C@@](O)(NC(=O)O1)[C@H](OC)/C=C/C=C(\C)C2 (stereo partly drawn) [3AA-MDC, N2′-deacetyl-N2′-(6-maleimido-1-oxo-hexyl)maytansine]
tubulin
  inhibition of tubulin polymerization: more significantly inhibited the tubulin polymerization

## COc1cc2cc(c1Cl)N(C)C(=O)C[C@H](OC(=O)[C@H](C)N(C)C(C)=O)[C@]1(C)O[C@H]1[C@H](C)[C@@H]1C[C@@](O)(NC(=O)O1)[C@H](OC)/C=C/C=C(\C)C2 [Maytansine]
[2]
  inhibitory concentration, as low as: ≥ 10^−7 μg/mL
[3]
  inhibitory activity against tumors: significant inhibitory activity
